According to patent publication US9850216B2 (H. LEE MOFFITT CANCER CENTER AND RESEARCH INSTITUTE, INC., priority 2013, dated 2017):
Where “and” joins values, the source holds several entries; their conditions need not be identical. Equal entries are not always repeated. Where two headings read alike, the source gives them in different places.

Molecular target: ACK1 (Homo sapiens, UniProt Q07912)
Test: ACK1 ELISA: phosphorylation of AKT-derived peptide
Format: biochemical
[1] = 10 μM, Table 2, library 9, read-out: % Inhibition @ 10 μM (ELISA)
[2] = 10 μM, Table 1, replicate values listed
[3] = 10 μM, Table 1, replicate values listed, read-out: % Inhibition at 10 μM (ELISA)
[4] = 10 μM, Table 1, replicate values listed, hydrochloride
[5] = 10 μM, read-out: ACK1 inhibition at 10 μM (ELISA)

Sequence of ACK1 (Q07912 whole entry): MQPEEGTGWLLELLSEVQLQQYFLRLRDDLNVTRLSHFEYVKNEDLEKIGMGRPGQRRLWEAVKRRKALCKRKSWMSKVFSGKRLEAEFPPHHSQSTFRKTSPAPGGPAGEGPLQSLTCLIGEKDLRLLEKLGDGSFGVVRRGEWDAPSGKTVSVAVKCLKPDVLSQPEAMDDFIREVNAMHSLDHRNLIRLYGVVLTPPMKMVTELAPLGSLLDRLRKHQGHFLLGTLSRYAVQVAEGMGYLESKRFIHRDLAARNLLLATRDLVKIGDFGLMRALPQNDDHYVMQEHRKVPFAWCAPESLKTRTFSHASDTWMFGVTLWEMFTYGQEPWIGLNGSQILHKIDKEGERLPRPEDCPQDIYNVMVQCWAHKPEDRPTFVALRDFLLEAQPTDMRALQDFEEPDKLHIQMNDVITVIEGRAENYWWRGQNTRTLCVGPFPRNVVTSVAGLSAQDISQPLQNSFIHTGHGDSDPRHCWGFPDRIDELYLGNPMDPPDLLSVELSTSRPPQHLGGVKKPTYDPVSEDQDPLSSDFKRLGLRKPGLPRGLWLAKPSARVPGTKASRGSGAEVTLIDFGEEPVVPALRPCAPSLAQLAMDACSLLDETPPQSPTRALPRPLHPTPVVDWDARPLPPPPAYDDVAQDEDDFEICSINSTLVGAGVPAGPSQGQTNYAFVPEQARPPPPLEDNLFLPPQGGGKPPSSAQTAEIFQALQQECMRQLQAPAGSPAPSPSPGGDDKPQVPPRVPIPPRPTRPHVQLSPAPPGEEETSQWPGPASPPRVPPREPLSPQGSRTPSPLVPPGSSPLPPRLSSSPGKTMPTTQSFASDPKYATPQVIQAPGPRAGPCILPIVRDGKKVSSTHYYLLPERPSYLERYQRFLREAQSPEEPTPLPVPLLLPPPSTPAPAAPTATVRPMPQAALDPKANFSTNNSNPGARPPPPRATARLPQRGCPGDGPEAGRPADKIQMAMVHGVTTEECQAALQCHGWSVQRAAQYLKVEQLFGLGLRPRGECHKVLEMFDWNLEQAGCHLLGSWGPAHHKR

Structure (SMILES) | % Inhibition at 10 μM (ELISA) [2] | inhibition at 10 µM [3] | further results
Brc1cnc(Nc2ccc(N3CCNCC3)cc2)nc1NCC1CCCO1 (centres unmarked) [Compound 15] |  |  | inhibition at 10 µM [1]: 65%
Cl.O=C(O)CCc1ccc(Nc2ncc(Cl)c(NC[C@H]3CCCO3)n2)cc1 [NT1-014, (R)-3-(4-(5-Chloro-4-((tetrahydrofuran-2-yl)methylamino)pyrimidin-2-ylamino)phenyl)propanoic acid] | 75% | 61% | 
CN1CCN(c2ccc(Nc3nccc(NCC4CCCO4)n3)cc2)CC1 (centres unmarked) [DZ1-104] | 13% | 19% | 
COc1ccc(Nc2ncc(C(=O)Nc3c(F)cccc3Cl)c(NCC3CCCO3)n2)cc1 (centres unmarked) [YL7-104-1, N-(2-chloro-6-fluorophenyl)-2-(4-methoxyphenylamino)-4-((tetrahydrofuran-2-yl)methylamino)pyrimidine-5-carboxamide] | 76% and 61% and 37% and 27% |  | 
O=C(O)C1CCN(c2ccc(Nc3ncc(Cl)c(NCC4CCCO4)n3)cc2)CC1 (centres unmarked) [YL8-050, 1-(4-(5-Chloro-4-((tetrahydrofuran-2-yl)methylamino)pyrimidin-2-ylamino)phenyl)piperidine-4-carboxylic acid] | 96% | 87% | 
Cl.Clc1cnc(Nc2ccc(C3CCNCC3)cc2)nc1NCC1CCCO1 (centres unmarked) [NT1-005, 5-Chloro-N^2-(4-(piperidin-4-yl)phenyl)-N^4-((tetrahydrofuran-2-yl)methyl)pyrimidine-2,4-diamine] | 80% | 79% | 
Cl.Clc1cnc(Nc2ccc(C3CCNCC3)cc2)nc1NC[C@H]1CCCO1 [NT1-010, (R)-5-Chloro-N^2-(4-(piperidin-4-yl)phenyl)-N^4-((tetrahydrofuran-2-yl)methyl)pyrimidine-2,4-diamine] | 76% | 67% | 
COc1ccc(Nc2ncc(Br)c(NCC3CCCO3)n2)cc1.Cl (centres unmarked) [SK1-022, 5-Bromo-N2-(4-methoxyphenyl)-N4-((tetrahydrofuran-2-yl)methyl)pyrimidine-2,4-diamine] | 67% | 68% | 
CN1CCN(c2ccc(Nc3ncc(Br)c(NCC4CCCO4)n3)cc2)CC1 (centres unmarked) [Compound 18] |  |  | inhibition at 10 µM [1]: 67 ± 0.2%; inhibition at 10 µM [5]: 67%
Brc1cnc(Nc2ccc(N3CCOCC3)cc2)nc1NCC1CCCO1 (centres unmarked) [Compound 9h] |  |  | inhibition at 10 µM [1]: 89 ± 1.4%
Cc1cnc(Nc2ccc(O)c(F)c2)nc1NCC1CCCO1.Cl (centres unmarked) [YL7-170-1, 2-Fluoro-4-(5-methyl-4-((tetrahydrofuran-2-yl)methylamino)pyrimidin-2-ylamino)phenol hydrochloride] |  |  | % Inhibition at 10 μM (ELISA) [4]: 51% and 29% and 47%
Clc1cnc(Nc2ccc(N3CCNCC3)cc2)nc1NCC1CCCO1 (centres unmarked) [Compound 14] |  |  | inhibition at 10 µM [1]: 66 ± 1.5%; inhibition at 10 µM [5]: 66%
Clc1cnc(Nc2ccc(CN3CCCCC3)cc2)nc1NCC1CCCO1 (centres unmarked) [MH1-035-3, 5-chloro-N2-(4-(piperidin-1-ylmethyl)phenyl)-N4-((tetrahydrofuran-2-yl)methyl)pyrimidine-2,4-diamine] | 72% | 77% | 
Cl.Clc1cnc(Nc2ccc(C3CCNCC3)cc2)nc1NC[C@@H]1CCCO1 [NT1-011, (S)-5-Chloro-N^2-(4-(piperidin-4-yl)phenyl)-N^4-((tetrahydrofuran-2-yl)methyl)pyrimidine-2,4-diamine] | 76% | 77% | 
O=C(O)CCC(=O)N1CCN(c2ccc(Nc3ncc(Br)c(NCC4CCCO4)n3)cc2)CC1 (centres unmarked) [YL9-168, 4-(4-(4-(5-Bromo-4-((tetrahydrofuran-2-yl)methylamino)pyrimidin-2-ylamino)phenyl)piperazin-1-yl)-4-oxobutanoic acid] | 90% | 94% | 
CCOC(=O)C1CCN(c2ccc(Nc3ncc(Cl)c(NC[C@H]4CCCO4)n3)cc2)CC1.Cl [DZ1-070, (R)-ethyl1-(4-(5-chloro-4-((tetrahydrofuran-2-yl)methylamino)pyrimidin-2-ylamino)phenyl)piperidine-4-carboxylate] | 65% | 52% | 
Cl.O=C(O)Cc1ccc(Nc2ncc(Cl)c(NC[C@@H]3CCCO3)n2)cc1 [NT1-013, (S)-2-(4-(5-Chloro-4-((tetrahydrofuran-2-yl)methylamino)pyrimidin-2-ylamino)phenyl)acetic acid] | 73% and 46% |  | 
O=C(O)C1CCN(c2ccc(Nc3ncc(Br)c(NCC4CCCO4)n3)cc2)CC1 (centres unmarked) | 84% |  | inhibition at 10 µM (read-out: % Inhibition at 10 μM (ELISA), 10 μM, Table 1, replicate values listed): 85%

Now from value to compound, other results behind:

% Inhibition at 10 μM (ELISA) [2] | inhibition at 10 µM [3] | Structure (SMILES) | further results
 | 37% | Cl.Oc1ccc(Nc2ncc(F)c(NCC3CCCO3)n2)cc1F (centres unmarked) [YL7-164, 2-Fluoro-4-(5-fluoro-4-((tetrahydrofuran-2-yl)methylamino)pyrimidin-2-ylamino)phenol hydrochloride] | % Inhibition at 10 μM (ELISA) [4]: 46% and 55%
69% | 54% | CCOC(=O)C1CCN(c2ccc(Nc3ncc(Cl)c(NC[C@@H]4CCCO4)n3)cc2)CC1.Cl [DZ1-079, (S)-ethyl1-(4-(5-chloro-4-((tetrahydrofuran-2-yl)methylamino)pyrimidin-2-ylamino)phenyl)piperidine-4-carboxylate] | 
88% | 77% | Cl.O=C(Nc1c(F)cccc1Cl)c1cnc(Nc2ccc(N3CCOCC3)cc2)nc1NCC1CCCO1 (centres unmarked) [DZ1-092, N-(2-chloro-6-fluorophenyl)-2-(4-morpholinophenylamino)-4-((tetrahydrofuran-2-yl)methylamino)pyrimidine-5-carboxamide] | 
73% | 61% | CCOC(=O)C1CCN(c2ccc(Nc3ncc(C(=O)Nc4c(F)cccc4Cl)c(NCC4CCCO4)n3)cc2)CC1.Cl (centres unmarked) [DZ1-094, Ethyl 1-(4-(5-(2-chloro-6-fluorophenylcarbamoyl)-4-((tetrahydrofuran-2-yl)methylamino)pyrimidin-2-ylamino)phenyl)piperidine-4-carboxylate] | 
81% | 72% | Cl.O=C(O)Cc1ccc(Nc2ncc(Cl)c(NCC3CCCO3)n2)cc1 (centres unmarked) [NT1-006, 2-(4-(5-Chloro-4-((tetrahydrofuran-2-yl)methylamino)pyrimidin-2-ylamino)phenyl)acetic acid] | 
74% | 62% | CN(C)CCNC(=O)CCc1ccc(Nc2ncc(Cl)c(NCC3CCCO3)n2)cc1.Cl (centres unmarked) [NT1-028, 3-(4-(5-Chloro-4-((tetrahydrofuran-2-yl)methylamino)pyrimidin-2-ylamino)phenyl)-N-(2-(dimethylamino)ethyl)propanamide] | 
72% | 70% | Cl.O=C(O)CCc1ccc(Nc2ncc(Cl)c(NC[C@@H]3CCCO3)n2)cc1 [NT1-015, (S)-3-(4-(5-Chloro-4-((tetrahydrofuran-2-yl)methylamino)pyrimidin-2-ylamino)phenyl)propanoic acid] | 
73% | 75% | Cl.O=C(O)CCc1ccc(Nc2ncc(Cl)c(NCC3CCCO3)n2)cc1 (centres unmarked) [NT1-007, 3-(4-(5-Chloro-4-((tetrahydrofuran-2-yl)methylamino)pyrimidin-2-ylamino)phenyl)propanoic acid] | 
74% | 68% | Cl.O=C(O)Cc1ccc(Nc2ncc(Cl)c(NC[C@H]3CCCO3)n2)cc1 [NT1-012, (R)-2-(4-(5-Chloro-4-((tetrahydrofuran-2-yl)methylamino)pyrimidin-2-ylamino)phenyl)acetic acid] | 
85% | 84% | Brc1cnc(Nc2ccc(C3CCNCC3)cc2)nc1NCC1CCCO1.Cl (centres unmarked) [DZ1-088, 5-bromo-N2-(4-(piperidin-4-yl)phenyl)-N4-((tetrahydrofuran-2-yl)methyl)pyrimidine-2,4-diamine] | 
75% | 74% | Cl.O=C(O)CCc1ccc(Nc2ncc(Br)c(NCC3CCCO3)n2)cc1 (centres unmarked) [NT1-023, 3-(4-(5-Bromo-4-((tetrahydrofuran-2-yl)methylamino)pyrimidin-2-ylamino)phenyl)propanoic acid] | 
65% | 64% | CCOC(=O)C1CCN(c2ccc(Nc3ncc(Br)c(NCC4CCCO4)n3)cc2)CC1.Cl (centres unmarked) [DZ1-093, Ethyl 1-(4-(5-bromo-4-((tetrahydrofuran-2-yl)methylamino)pyrimidin-2-ylamino)phenyl)piperidine-4-carboxylate] | 
33% | 53% | Oc1ccc(Nc2ncc(F)c(NCC3CCCO3)n2)cc1 (centres unmarked) [DZ1-112, 4-(5-fluoro-4-((tetrahydrofuran-2-yl)methylamino)pyrimidin-2-ylamino)phenol] | 
73% and 78% (2×) | 91% | Clc1cnc(Nc2ccc(N3CCNCC3)cc2)nc1NCC1CCCO1 (centres unmarked) [MH1-007-3, 5-chloro-N2-(4-(piperazin-1-yl)phenyl)-N4-((tetrahydrofuran-2-yl)methyl)pyrimidine-2,4-diamine] | 
 | 65% | Cl.O=C(Nc1c(F)cccc1Cl)c1cnc(Nc2ccc(O)c(F)c2)nc1NCC1CCCO1 (centres unmarked) [YL7-170-2, N-(2-chloro-6-fluorophenyl)-2-(3-fluoro-4-hydroxyphenylamino)-4-((tetrahydrofuran-2-yl)methylamino)pyrimidine-5-carboxamide hydrochloride] | % Inhibition at 10 μM (ELISA) [4]: 68% and 67%
82% | 88% | COc1cc(N2CCOCC2)ccc1Nc1ncc(Cl)c(NCC2CCCO2)n1 (centres unmarked) [MH1-030-4, 5-chloro-N2-(2-methoxy-4-morpholinophenyl)-N4-((tetrahydrofuran-2-yl)methyl)pyrimidine-2,4-diamine] | 
61% | 73% | CCNC(=O)C1CCN(c2ccc(Nc3ncc(Cl)c(NC[C@@H]4CCCO4)n3)cc2)CC1 [SG1-083] | 
